Common to all, as to format: cell-based
Assay [1] relates to B. fragilis MZ-R ATCC 11295. The assay is described as follows: Screening panel of Bacteroides fragilis, MIC and MBC, strain D. The following applies: ATCC11295, 48 h.
In assay [2] the test system is Clostridium perfringens NCTC 523. The assay is described as follows: microbe, parasite or virus in culture. Particulars: NCTC523.
Assay [3] has as its system Campylobacter fetus ss. jejuni ATCC 29428. Description: MIC vs panel of anaerobes. The following applies: ATCC29428, procedures of Example 11 (mg/L).
Assay [4] concerns Fusobacterium necrophorum ATCC 25286. The assay is described as follows: MIC vs panel of anaerobes. The following applies: ATCC25286, procedures of Example 11 (mg/L).
The test system of assay [5] is Fusobacterium necrophorum ATCC 11295. Description: MIC vs panel of anaerobes. Particulars: ATCC11295, procedures of Example 11 (mg/L).
Assay [6] deals with Bacteroides melanogenicus NCTC 9336. The assay is described as follows: MIC vs panel of anaerobes. The following applies: NCTC9336, procedures of Example 11 (mg/L).

Molecules are shown by their SMILES. Values after ≈ are worked out from the molar mass of the structure shown. Bounds are passed on as bounds.

With `Cc1ccc(C2=[N+]([O-])c3cc(C(F)(F)F)ccc3N3CC(C)(C)CN=C23)cc1` [Example 3, 2,3-Dihydro-2,2-dimethyl-5-(4-methylphenyl)-8-trifluoromethyl-1H-pyrimid [1,2-a]quinoxaline 6-oxide], the MIC is 1.5 µg/mL (≈ 3.87 µM) in assay [1] (48 hours at 37° C., anaerobic, read-out: Minimum Inhibitory Concentration (MIC)); less than 0.8 µg/mL in assay [2]; more than 100 µg/mL in assay [3]; less than 0.8 µg/mL in assay [4]; 6.2 µg/mL (≈ 16 µM) in assay [5]; more than 100 µg/mL in assay [6]. Also, the MBC in assay [1] (less than 5 colonies (99.9% reduction) after 48 hours, read-out: Minimum Bactericidal Concentration (MBC)) amounted to 6.2 µg/mL (≈ 16 µM).

These data come from patent publication US4758565A, “Substituted pyrimidoquinoxalines useful as anti-anaerobic agents” (G. D. Searle & Co., priority 1986, dated 1988).
